This is an account of results in patent publication US9924717B2, “Molecules having pesticidal utility, and intermediates, compositions, and processes, related thereto” (Dow AgroSciences LLC, priority 2016, dated 2018).

Format in all cases: in vivo
Experiment [1] concerns Green Peach Aphid (Myzus persicae, MYZUPE) (GPA). The experiment in a line: Bioassays on Green Peach Aphid (GPA), cabbage seedling foliar spray. The note with it: Table ABC rating. The protocol: Example B: Bioassays on Green Peach Aphid (Myzus persicae, MYZUPE) (“GPA”) Certain molecules disclosed in this document were tested against GPA using procedures described in the following example. In the reporting of the results, the “GPA & YFM Rating Table” was used (See Table Section). Cabbage seedlings grown in 3-inch pots, with 2-3 small (3-5 cm) true leaves, were used as test substrate. The seedlings were infested with 20-50 GPA (wingless adult and nymph stages) one day prior to chemical application. Four pots with individual seedlings were used for each treatment. Test molecules (2 mg) were dissolved in 2 mL of acetone/methanol (1:1) solvent, forming stock solutions of 1000 ppm test molecule. The stock solutions were diluted 5× with 0.025% Tween 20 in water to obtain the solution at 200 ppm test molecule. A hand-held aspirator-type sprayer was used for spraying a solution to both sides of […] leaves until runoff. Reference plants (solvent check) were sprayed with the diluent only containing 20% by volume of acetone/methanol (1:1) solvent. Treated plants were held in a holding room for three days at approximately 25° C. and ambient relative humidity (RH) prior to grading. Evaluation was conducted by counting the number of live aphids per plant under a microscope. Percent Control was measured by using Abbott's correction formula (W. S. Abbott, “A Method of Computing the Effectiveness of an Insecticide” J. Econ. Entomol. 18 (1925), pp. 265-267) as follows. Corrected % Control=100*(X−Y)/X • where • X=No. of live aphids on solvent check plants and • Y=No. of live aphids on treated plants The results are indicated in the table entitled “Table ABC: Biological Results” (See Table Section).

The subject of experiment [2] is Cabbage Looper (Trichoplusia ni, TRIPNI) (CL). The experiment in a line: Bioassays on Cabbage Looper (CL), 128-well diet tray assay. The note with it: Table ABC rating, Cabbage Looper. The method in brief:
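Cabbage looper (Trichoplusia ni) larvae at the second instar stage were tested in a 128-well diet tray. Each 3 mL well held 1 mL of artificial diet treated with test molecule dissolved in 50 μL of 90:10 acetone-water and allowed to dry, eight wells per treatment. One to five larvae were added per well. Trays were sealed with clear self-adhesive covers and kept at 25° C., 14:10 light-dark for five to seven days. Percent mortality per well was averaged across the eight wells.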

The subject of experiment [3] is Beet Armyworm (Spodoptera exigua, LAPHEG) (BAW). Nature of the experiment: Bioassays on Beet Armyworm (BAW), 128-well diet tray assay. The note with it: Table ABC rating, Beet Armyworm. In short, it runs like this:
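Beet armyworm (Spodoptera exigua) was tested with a 128-well diet tray format. Each 3 mL well held 1 mL of artificial diet treated with the test molecule in 50 μL of 90:10 acetone-water and allowed to dry, across eight wells. One to five second instar larvae were added per well. Trays were sealed with clear self-adhesive covers and kept at 25° C. under 14:10 light-dark for five to seven days. Percent mortality was scored per well and averaged across the eight wells.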

The subject of experiment [4] is Yellow Fever Mosquito (Aedes aegypti, AEDSAE) (YFM). The experiment in a line: Bioassays on Yellow Fever Mosquito (YFM), 96-well plate larval assay. The note with it: Table ABC rating. The protocol: Example C: Bioassays on Yellow Fever Mosquito (Aedes aegypti, AEDSAE) (“YFM”)
Certain molecules disclosed in this document were tested against YFM using procedures described in the following paragraph. In the reporting of the results, the “GPA & YFM Rating Table” was used (See Table Section).
Master plates containing 400 μg of a molecule dissolved in 100 μL of dimethyl sulfoxide (DMSO) (equivalent to a 4000 ppm solution) are used. A master plate of assembled molecules contains 15 μL per well. To this plate, 135 μL of a 90:10 water:acetone mixture is added to each well. A robot (Biomek® NXP Laboratory Automation Workstation) is programmed to dispense 15 μL aspirations from the master plate into an empty 96-well shallow plate (“daughter” plate). There are 6 reps (“daughter” plates) created per master. The created daughter plates are then immediately infested with YFM larvae.
The day before plates are to be treated, mosquito eggs are placed in Millipore water containing liver powder to begin hatching (4 g. into 400 mL). After the daughter plates are created using the robot, they are infested with 220 μL of the liver powder/larval mosquito mixture (about 1 day-old larvae). After plates are infested with mosquito larvae, a non-evaporative lid is used to cover the plate to reduce drying. Plates are held at room temperature for 3 days prior to grading. After 3 days, each well is observed and scored based on mortality. The results are indicated in the table entitled “Table ABC: Biological Results” (See Table Section).

Turning to `CO/N=C\NC(=O)c1ccc(/C(F)=C/C(c2cc(Cl)c(Cl)c(Cl)c2)C(F)(F)F)cc1C(F)(F)F` (mixture of isomers) [F19, N-((E/Z)-(methoxyimino)methyl)-4-((Z)-1,4,4,4-tetrafluoro-3-(3,4,5-trichlorophenyl)but-1-en-1-yl)-2-(trifluoromethyl)benzamide], the GPA entry in experiment [1] is listed as “B (More than 0-Less than 80)”. The pest or weed control at 50 µg/cm2 in experiment [2] and in experiment [3] was 50 to 100% throughout.
In the case of `O=C(NC1CC1)c1ccc(/C(F)=C/C(c2cc(Cl)c(Cl)c(Cl)c2)C(F)(F)F)cc1C(F)(F)F` (stereo not drawn) [F3, (Z)—N-Cyclopropyl-4-(1,4,4,4-tetrafluoro-3-(3,4,5-trichlorophenyl)but-1-en-1-yl)-2-(trifluoromethyl)benzamide], the GPA result in experiment [1] is reported as “B (More than 0-Less than 80)”. For the same compound, the pest or weed control at 50 µg/cm2 in experiment [2] and in experiment [3] was 50 to 100% in each case.
In the case of `O=C(NC1CC(F)(F)C1)c1ccc(/C(F)=C/C(c2cc(Cl)c(Cl)c(Cl)c2)C(F)(F)F)cc1C(F)(F)F` (stereo not drawn) [F7, (Z)—N-(3,3-difluorocyclobutyl)-4-(1,4,4,4-tetrafluoro-3-(3,4,5-trichlorophenyl)but-1-en-1-yl)-2-(trifluoromethyl)benzamide], the GPA entry in experiment [1] is on record as “A (80-100)”. For the same compound, the pest or weed control at 50 µg/cm2 in experiment [2] and in experiment [3] was 50 to 100% throughout.
As for `O=C(NC1CC1)c1ccc(/C(F)=C/C(c2cc(Br)cc(Br)c2)C(F)(F)F)cc1C(F)(F)F` (stereo not drawn) [F42, (Z)—N-Cyclopropyl-4-(3-(3,5-dibromophenyl)-1,4,4,4-tetrafluorobut-1-en-1-yl)-2-(trifluoromethyl)benzamide], the pest or weed control at 50 µg/cm2 in experiment [2] and in experiment [3] was 50 to 100% each time. Moreover, the YFM result in experiment [4] is “A (80-100)”.
Consider `O=C(NC1CC1)c1ccc(/C(F)=C/C(c2cc(Cl)c(F)c(Cl)c2)C(F)(F)F)cc1C(F)(F)F` (stereo not drawn) [F43, (Z)—N-Cyclopropyl-4-(3-(3,5-dichloro-4-fluorophenyl)-1,4,4,4-tetrafluorobut-1-en-1-yl)-2-(trifluoromethyl)benzamide], for which the pest or weed control at 50 µg/cm2 in experiment [2] and in experiment [3] was 50 to 100% each time. Moreover, the YFM entry in experiment [4] is “A (80-100)”.
As to `O=C(NC1CCC(F)(F)CC1)c1ccc(/C(F)=C/C(c2ccc(Br)c(Br)c2)C(F)(F)F)cc1C(F)(F)F` (stereo not drawn) [F44, (Z)-4-(3-(3,4-Dibromophenyl)-1,4,4,4-tetrafluorobut-1-en-1-yl)-N-(4,4-difluorocyclohexyl)-2-(trifluoromethyl)benzamide], the pest or weed control at 50 µg/cm2 in experiment [2] and in experiment [3] was 50 to 100% in each case. Also, the YFM result in experiment [4] was “A (80-100)”.
`CC(NC(=O)c1ccc(/C(F)=C/C(c2ccc(Br)c(Br)c2)C(F)(F)F)cc1C(F)(F)F)C(F)(F)F` (stereo not drawn) [F45, 4-((Z)-3-(3,4-Dibromophenyl)-1,4,4,4-tetrafluorobut-1-en-1-yl)-2-(trifluoromethyl)-N-(1,1,1-trifluoropropan-2-yl)benzamide]: the pest or weed control at 50 µg/cm2 in experiment [2] and in experiment [3] was 50 to 100% in each case. Moreover, the YFM entry in experiment [4] is on record as “B (More than 0-Less than 80)”.
Consider `O=C(NC1CC1)c1ccc(/C(F)=C/C(c2ccc(Br)c(Br)c2)C(F)(F)F)cc1C(F)(F)F` (stereo not drawn) [F46, (Z)—N-Cyclopropyl-4-(3-(3,4-dibromophenyl)-1,4,4,4-tetrafluorobut-1-en-1-yl)-2-(trifluoromethyl)benzamide], for which the pest or weed control at 50 µg/cm2 in experiment [2] and in experiment [3] was 50 to 100% each time. The YFM entry in experiment [4] is given as “A (80-100)”.
Regarding `O=C(NCc1ccccn1)c1ccc(/C(F)=C/C(c2cc(Cl)c(Cl)c(Cl)c2)C(F)(F)F)cc1C(F)(F)F` (stereo not drawn) [F51, (Z)—N-(Pyridin-2-ylmethyl)-4-(1,4,4,4-tetrafluoro-3-(3,4,5-trichlorophenyl)but-1-en-1-yl)-2-(trifluoromethyl)benzamide], the pest or weed control at 50 µg/cm2 in experiment [2] and in experiment [3] was 50 to 100% each time. Further, the YFM entry in experiment [4] is given as “A (80-100)”.
Turning to `CC(NC(=O)c1ccc(/C(F)=C/C(c2cc(Cl)c(Cl)c(Cl)c2)C(F)(F)F)cc1C(F)(F)F)c1ccccn1` (stereo not drawn) [F52, (Z)—N-(1-(Pyridin-2-yl)ethyl)-4-(1,4,4,4-tetrafluoro-3-(3,4,5-trichlorophenyl)but-1-en-1-yl)-2-(trifluoromethyl)benzamide], the pest or weed control at 50 µg/cm2 in experiment [2] and in experiment [3] was 50 to 100% in each case. Besides, the YFM entry in experiment [4] is “A (80-100)”.
Take `O=C(NCC(F)(F)F)c1ccc(/C(F)=C/C(c2cc(Cl)c(Cl)c(Cl)c2)C(F)(F)F)c2ccccc12` (stereo not drawn) [PF1, (Z)-4-(1,4,4,4-Tetrafluoro-3-(3,4,5-trichlorophenyl)but-1-en-1-yl)-N-(2,2,2-trifluoroethyl)-1-naphthamide]: the pest or weed control at 50 µg/cm2 in experiment [2] and in experiment [3] was 50 to 100% each time. Further, the YFM entry in experiment [4] is reported as “A (80-100)”.

By pest or weed control is commonly meant how far the test organism was held down. High values mean a strong effect, low ones a weak effect.
